According to patent US9156845B2, “4-(substituted amino)-7H-pyrrolo[2,3-d] pyrimidines as LRRK2 inhibitors” (Pfizer Inc., priority 2012, dated 2015):

Columns and labels:
Test in all cases: ActivX kinase probe assay (human PBMC)
Format in all cases: binding
AKT2, AKT3 = tested on: AKT2, AKT3
CaMK2d = CaMK2d (Homo sapiens (Human), UniProt Q13557); conditions: read-out: percent inhibition
CHK2 = CHK2 (Homo sapiens (Human), UniProt O96017); conditions: read-out: percent inhibition
DGKA = DGKA (Homo sapiens (Human), UniProt P23743); conditions: read-out: percent inhibition
DNAPK = DNAPK (Homo sapiens (Human), UniProt P78527); conditions: read-out: percent inhibition
eEF2K = eEF2K (Homo sapiens (Human), UniProt O00418); conditions: read-out: percent inhibition
FAK = FAK (Homo sapiens (Human), UniProt Q05397); conditions: read-out: percent inhibition
FES = FES (Homo sapiens (Human), UniProt P07332); conditions: read-out: percent inhibition
FRAP = FRAP (Homo sapiens (Human), UniProt P42345); conditions: read-out: percent inhibition
FYN, SRC, YES = tested on: FYN, SRC, YES
GCK = GCK (Homo sapiens (Human), UniProt Q12851); conditions: read-out: percent inhibition
GCN2 = GCN2 (Homo sapiens (Human), UniProt Q9P2K8); conditions: read-out: percent inhibition
GSK3A = GSK3A (Homo sapiens (Human), UniProt P49840); conditions: read-out: percent inhibition
IRAK3 = IRAK3 (Homo sapiens (Human), UniProt Q9Y616); conditions: read-out: percent inhibition
JAK3 domain2 = JAK3 domain2 (Homo sapiens (Human), UniProt P52333); conditions: read-out: percent inhibition
LATS1 = LATS1 (Homo sapiens (Human), UniProt O95835); conditions: read-out: percent inhibition
LRRK2 = LRRK2 (Homo sapiens (Human), UniProt Q5S007); conditions: read-out: percent inhibition
MAP2K4 = MAP2K4 (Homo sapiens (Human), UniProt P45985); conditions: read-out: percent inhibition
MAP3K3 = MAP3K3 (Homo sapiens (Human), UniProt Q99759); conditions: read-out: percent inhibition
MSK1 domain1 = MSK1 domain1 (Homo sapiens (Human), UniProt O75582); conditions: read-out: percent inhibition
MST3 = MST3 (Homo sapiens (Human), UniProt Q9Y6E0); conditions: read-out: percent inhibition
NEK9 = NEK9 (Homo sapiens (Human), UniProt Q8TD19); conditions: read-out: percent inhibition
NuaK2 = NuaK2 (Homo sapiens (Human), UniProt Q9H093); conditions: read-out: percent inhibition
p38a = p38a (Homo sapiens (Human), UniProt Q16539); conditions: read-out: percent inhibition
p70S6K = p70S6K (Homo sapiens (Human), UniProt P23443); conditions: read-out: percent inhibition
p70S6Kb = p70S6Kb (Homo sapiens (Human), UniProt Q9UBS0); conditions: read-out: percent inhibition
PI4KB = PI4KB (Homo sapiens (Human), UniProt Q9UBF8); conditions: read-out: percent inhibition
RIPK3 = RIPK3 (Homo sapiens (Human), UniProt Q9Y572); conditions: read-out: percent inhibition
RSK2 domain1 = RSK2 domain1 (Homo sapiens (Human), UniProt P51812); conditions: read-out: percent inhibition
RSK2 domain2 = RSK2 domain2 (Homo sapiens (Human), UniProt P51812); conditions: read-out: percent inhibition
SLK = SLK (Homo sapiens (Human), UniProt Q9H2G2); conditions: read-out: percent inhibition
smMLCK = smMLCK (Homo sapiens (Human), UniProt Q15746); conditions: read-out: percent inhibition
TAO2 = TAO2 (Homo sapiens (Human), UniProt Q9UL54); conditions: read-out: percent inhibition
ULK3 = ULK3 (Homo sapiens (Human), UniProt Q6PHR2); conditions: read-out: percent inhibition
ZC2/TNIK = ZC2/TNIK (Homo sapiens (Human), UniProt Q9UKE5); conditions: read-out: percent inhibition

smMLCK, sequence (Q15746 whole entry): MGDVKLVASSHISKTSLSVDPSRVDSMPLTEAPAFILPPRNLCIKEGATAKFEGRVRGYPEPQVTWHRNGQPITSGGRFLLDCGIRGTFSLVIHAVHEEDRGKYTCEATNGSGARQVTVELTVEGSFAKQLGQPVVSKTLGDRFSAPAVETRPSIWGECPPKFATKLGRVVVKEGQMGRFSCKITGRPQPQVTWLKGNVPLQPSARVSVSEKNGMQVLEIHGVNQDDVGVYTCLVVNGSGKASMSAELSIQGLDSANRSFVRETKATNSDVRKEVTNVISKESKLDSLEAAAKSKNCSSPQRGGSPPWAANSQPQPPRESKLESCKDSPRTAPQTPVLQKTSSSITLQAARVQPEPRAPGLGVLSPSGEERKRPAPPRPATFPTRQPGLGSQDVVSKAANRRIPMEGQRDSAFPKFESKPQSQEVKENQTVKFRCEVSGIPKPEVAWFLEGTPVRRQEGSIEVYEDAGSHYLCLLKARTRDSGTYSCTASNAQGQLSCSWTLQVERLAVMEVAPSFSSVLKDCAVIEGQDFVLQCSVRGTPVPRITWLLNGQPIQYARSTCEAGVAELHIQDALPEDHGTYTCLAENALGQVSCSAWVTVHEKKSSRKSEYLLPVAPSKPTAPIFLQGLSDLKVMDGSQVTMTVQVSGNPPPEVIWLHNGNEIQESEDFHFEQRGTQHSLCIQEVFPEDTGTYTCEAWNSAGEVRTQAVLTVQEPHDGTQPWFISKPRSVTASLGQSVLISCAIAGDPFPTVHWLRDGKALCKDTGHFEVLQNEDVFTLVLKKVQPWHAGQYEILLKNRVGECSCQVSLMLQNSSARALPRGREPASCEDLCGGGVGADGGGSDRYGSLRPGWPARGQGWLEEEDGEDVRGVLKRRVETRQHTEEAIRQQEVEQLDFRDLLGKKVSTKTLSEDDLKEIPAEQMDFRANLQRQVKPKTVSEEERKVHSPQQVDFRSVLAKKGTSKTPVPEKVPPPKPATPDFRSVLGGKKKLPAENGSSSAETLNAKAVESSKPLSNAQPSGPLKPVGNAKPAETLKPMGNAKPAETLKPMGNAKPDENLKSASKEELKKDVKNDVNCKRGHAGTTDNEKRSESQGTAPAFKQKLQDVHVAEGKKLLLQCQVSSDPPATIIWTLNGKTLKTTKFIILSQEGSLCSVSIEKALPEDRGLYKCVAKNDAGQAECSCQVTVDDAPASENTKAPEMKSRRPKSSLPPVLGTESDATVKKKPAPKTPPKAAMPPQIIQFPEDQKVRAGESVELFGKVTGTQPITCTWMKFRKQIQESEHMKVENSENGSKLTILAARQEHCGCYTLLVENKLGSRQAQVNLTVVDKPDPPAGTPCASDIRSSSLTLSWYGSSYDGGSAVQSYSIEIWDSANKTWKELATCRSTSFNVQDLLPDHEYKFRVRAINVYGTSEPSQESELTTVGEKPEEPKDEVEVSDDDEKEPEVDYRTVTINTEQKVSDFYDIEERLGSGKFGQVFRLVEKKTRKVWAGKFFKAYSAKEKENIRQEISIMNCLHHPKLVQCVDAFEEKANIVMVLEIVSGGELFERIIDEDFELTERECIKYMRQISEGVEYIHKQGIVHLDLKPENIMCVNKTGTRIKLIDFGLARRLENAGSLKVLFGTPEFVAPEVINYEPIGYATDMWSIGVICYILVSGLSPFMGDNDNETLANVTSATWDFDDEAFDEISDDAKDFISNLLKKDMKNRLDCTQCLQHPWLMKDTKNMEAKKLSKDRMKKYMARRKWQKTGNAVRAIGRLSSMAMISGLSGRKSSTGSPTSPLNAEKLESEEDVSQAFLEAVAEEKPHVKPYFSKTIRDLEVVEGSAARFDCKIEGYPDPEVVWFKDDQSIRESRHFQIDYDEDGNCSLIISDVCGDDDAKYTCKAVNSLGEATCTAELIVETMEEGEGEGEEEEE
PI4KB, sequence (Q9UBF8 whole entry): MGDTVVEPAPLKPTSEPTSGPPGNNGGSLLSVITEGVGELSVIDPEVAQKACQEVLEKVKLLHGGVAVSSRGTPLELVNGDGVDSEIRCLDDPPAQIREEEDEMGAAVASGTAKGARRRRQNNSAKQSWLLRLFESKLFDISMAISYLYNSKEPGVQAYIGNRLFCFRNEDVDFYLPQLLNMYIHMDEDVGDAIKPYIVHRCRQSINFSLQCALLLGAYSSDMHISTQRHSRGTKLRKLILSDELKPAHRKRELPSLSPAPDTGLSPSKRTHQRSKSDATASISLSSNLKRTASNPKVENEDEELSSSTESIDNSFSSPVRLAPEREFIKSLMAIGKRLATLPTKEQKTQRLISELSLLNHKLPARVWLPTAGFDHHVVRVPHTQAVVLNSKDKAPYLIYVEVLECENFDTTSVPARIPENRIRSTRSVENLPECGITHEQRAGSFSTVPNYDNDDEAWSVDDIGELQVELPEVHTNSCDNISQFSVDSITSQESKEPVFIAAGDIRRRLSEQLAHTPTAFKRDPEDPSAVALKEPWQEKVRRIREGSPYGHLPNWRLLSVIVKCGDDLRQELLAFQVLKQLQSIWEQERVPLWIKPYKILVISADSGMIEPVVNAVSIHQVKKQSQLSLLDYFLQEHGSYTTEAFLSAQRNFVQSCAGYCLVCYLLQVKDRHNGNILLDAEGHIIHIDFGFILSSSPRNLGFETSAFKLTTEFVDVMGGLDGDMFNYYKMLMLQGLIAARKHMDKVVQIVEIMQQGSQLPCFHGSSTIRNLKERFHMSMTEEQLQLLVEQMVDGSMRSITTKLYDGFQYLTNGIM
CaMK2d, sequence (Q13557 whole entry): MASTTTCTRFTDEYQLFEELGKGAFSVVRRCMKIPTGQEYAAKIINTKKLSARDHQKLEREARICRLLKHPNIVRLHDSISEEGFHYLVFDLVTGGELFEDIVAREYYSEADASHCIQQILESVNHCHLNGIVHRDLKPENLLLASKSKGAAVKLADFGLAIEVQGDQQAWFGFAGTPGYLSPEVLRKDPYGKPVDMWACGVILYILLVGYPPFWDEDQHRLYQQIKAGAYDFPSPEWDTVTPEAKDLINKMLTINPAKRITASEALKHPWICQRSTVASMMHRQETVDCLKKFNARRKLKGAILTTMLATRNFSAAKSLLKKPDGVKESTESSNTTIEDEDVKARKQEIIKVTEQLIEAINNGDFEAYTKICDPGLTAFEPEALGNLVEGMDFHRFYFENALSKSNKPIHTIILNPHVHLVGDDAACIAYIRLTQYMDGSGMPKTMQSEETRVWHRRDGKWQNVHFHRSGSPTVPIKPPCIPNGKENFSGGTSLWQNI
SLK, sequence (Q9H2G2 whole entry): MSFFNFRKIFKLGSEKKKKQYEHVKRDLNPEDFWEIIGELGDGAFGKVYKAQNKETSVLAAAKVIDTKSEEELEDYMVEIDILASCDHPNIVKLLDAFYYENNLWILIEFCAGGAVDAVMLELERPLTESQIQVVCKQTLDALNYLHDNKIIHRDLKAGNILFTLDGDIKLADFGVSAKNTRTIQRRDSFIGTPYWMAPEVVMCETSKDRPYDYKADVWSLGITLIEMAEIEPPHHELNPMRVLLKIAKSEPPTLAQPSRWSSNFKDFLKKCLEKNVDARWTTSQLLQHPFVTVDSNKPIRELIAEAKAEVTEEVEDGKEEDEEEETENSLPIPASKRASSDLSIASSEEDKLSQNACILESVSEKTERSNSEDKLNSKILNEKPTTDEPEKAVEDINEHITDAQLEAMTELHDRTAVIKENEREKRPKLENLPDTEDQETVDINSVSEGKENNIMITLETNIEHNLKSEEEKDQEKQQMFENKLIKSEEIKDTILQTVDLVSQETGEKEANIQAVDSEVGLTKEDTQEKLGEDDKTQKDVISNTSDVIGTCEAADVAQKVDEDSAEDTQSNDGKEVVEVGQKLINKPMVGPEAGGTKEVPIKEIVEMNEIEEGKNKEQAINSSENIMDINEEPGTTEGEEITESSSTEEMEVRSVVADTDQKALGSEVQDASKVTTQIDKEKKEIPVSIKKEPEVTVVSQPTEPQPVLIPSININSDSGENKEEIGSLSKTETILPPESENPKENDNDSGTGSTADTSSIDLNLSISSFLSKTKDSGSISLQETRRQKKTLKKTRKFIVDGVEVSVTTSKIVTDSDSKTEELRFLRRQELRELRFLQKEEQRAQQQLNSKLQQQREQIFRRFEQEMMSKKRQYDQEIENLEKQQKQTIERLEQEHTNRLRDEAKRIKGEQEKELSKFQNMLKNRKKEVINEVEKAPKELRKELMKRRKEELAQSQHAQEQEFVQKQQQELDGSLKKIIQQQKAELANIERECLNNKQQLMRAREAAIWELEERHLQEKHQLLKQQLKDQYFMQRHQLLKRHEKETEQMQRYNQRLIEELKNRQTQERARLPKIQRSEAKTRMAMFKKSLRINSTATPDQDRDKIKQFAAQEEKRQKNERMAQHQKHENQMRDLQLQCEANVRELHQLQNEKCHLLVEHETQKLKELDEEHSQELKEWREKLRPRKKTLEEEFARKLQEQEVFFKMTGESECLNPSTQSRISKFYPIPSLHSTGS
p38a, sequence (Q16539 whole entry): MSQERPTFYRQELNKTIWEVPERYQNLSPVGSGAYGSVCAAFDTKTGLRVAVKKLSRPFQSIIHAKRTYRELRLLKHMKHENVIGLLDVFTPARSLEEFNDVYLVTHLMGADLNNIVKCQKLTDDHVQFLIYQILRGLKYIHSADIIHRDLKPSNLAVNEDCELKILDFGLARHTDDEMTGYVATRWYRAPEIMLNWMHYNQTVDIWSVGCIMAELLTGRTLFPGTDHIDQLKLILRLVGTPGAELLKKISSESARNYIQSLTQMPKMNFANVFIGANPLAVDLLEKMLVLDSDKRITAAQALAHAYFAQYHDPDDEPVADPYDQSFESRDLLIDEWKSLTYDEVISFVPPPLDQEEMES

`N#Cc1cccc(-c2c[nH]c3ncnc(N4CCOCC4)c23)c1` [Example 4, 3-[4-(Morpholin-4-yl)-7H-pyrrolo[2,3-d]pyrimidin-5-yl]benzonitrile] was tested. Which percent inhibition (AKT2, AKT3; 0.1 μM) did it give?
The percent inhibition was −2.6%.

And the percent inhibition (AKT2, AKT3; 1 μM)?
Its percent inhibition is 6.8%.

What about the inhibition at 0.1 µM (CaMK2d) of the same compound?
The inhibition at 0.1 µM was -0.4%.

What about the inhibition at 1 µM (CaMK2d) of the same compound?
The inhibition at 1 µM was 10.8%.

And the inhibition at 0.1 µM (CHK2)?
Its inhibition at 0.1 µM is -6.8%.

What about the inhibition at 1 µM (CHK2) of the same compound?
Its inhibition at 1 µM is 2.2%.

And the inhibition at 0.1 µM (DGKA)?
Its inhibition at 0.1 µM is -15.9%.

And the inhibition at 1 µM (DGKA)?
Its inhibition at 1 µM is -8.7%.

What about the inhibition at 0.1 µM (DNAPK) of the same compound?
Its inhibition at 0.1 µM is -19.3%.

And the inhibition at 1 µM (DNAPK)?
The inhibition at 1 µM was 14.7%.

And the inhibition at 0.1 µM (eEF2K)?
Its inhibition at 0.1 µM is -27.1%.

And the inhibition at 1 µM (eEF2K)?
The inhibition at 1 µM was 2.8%.

And the inhibition at 0.1 µM (FAK)?
The inhibition at 0.1 µM was -8.9%.

And the inhibition at 1 µM (FAK)?
The inhibition at 1 µM was 11.1%.

What about the inhibition at 0.1 µM (FES) of the same compound?
Its inhibition at 0.1 µM is -9.2%.

And the inhibition at 1 µM (FES)?
Its inhibition at 1 µM is 6.9%.

And the inhibition at 0.1 µM (FRAP)?
The inhibition at 0.1 µM was -20.7%.

And the inhibition at 1 µM (FRAP)?
Its inhibition at 1 µM is 9.8%.

And the percent inhibition (FYN, SRC, YES; 0.1 μM)?
The percent inhibition was −22.8%.

What about the percent inhibition (FYN, SRC, YES; 1 μM) of the same compound?
The percent inhibition was −8.8%.

And the inhibition at 0.1 µM (GCK)?
Its inhibition at 0.1 µM is 3.6%.

What about the inhibition at 1 µM (GCK) of the same compound?
Its inhibition at 1 µM is 31.2%.

What about the inhibition at 0.1 µM (GCN2) of the same compound?
Its inhibition at 0.1 µM is -13.6%.

What about the inhibition at 1 µM (GCN2) of the same compound?
The inhibition at 1 µM was 0.6%.

And the inhibition at 0.1 µM (GSK3A)?
The inhibition at 0.1 µM was -0.9%.

And the inhibition at 1 µM (GSK3A)?
The inhibition at 1 µM was 7.2%.

And the inhibition at 0.1 µM (IRAK3)?
Its inhibition at 0.1 µM is 29.8%.

What about the inhibition at 1 µM (IRAK3) of the same compound?
Its inhibition at 1 µM is 33.7%.

And the inhibition at 0.1 µM (JAK3 domain2)?
The inhibition at 0.1 µM was 6.9%.

And the inhibition at 1 µM (JAK3 domain2)?
Its inhibition at 1 µM is 6.8%.

What about the inhibition at 0.1 µM (LATS1) of the same compound?
Its inhibition at 0.1 µM is -4.8%.

And the inhibition at 1 µM (LATS1)?
The inhibition at 1 µM was 5.4%.

And the inhibition at 0.1 µM (LRRK2; 0.1 μM)?
Its inhibition at 0.1 µM is 79.9%.

What about the inhibition at 1 µM (LRRK2; 1 μM) of the same compound?
The inhibition at 1 µM was 94.1%.

And the inhibition at 0.1 µM (MAP2K4)?
Its inhibition at 0.1 µM is -20.5%.

What about the inhibition at 1 µM (MAP2K4) of the same compound?
Its inhibition at 1 µM is 19.2%.

And the inhibition at 0.1 µM (MAP3K3)?
The inhibition at 0.1 µM was -0.5%.

And the inhibition at 1 µM (MAP3K3)?
Its inhibition at 1 µM is 7.4%.

What about the inhibition at 0.1 µM (MSK1 domain1) of the same compound?
Its inhibition at 0.1 µM is 1%.

And the inhibition at 1 µM (MSK1 domain1)?
Its inhibition at 1 µM is -3.8%.

And the inhibition at 0.1 µM (MST3)?
Its inhibition at 0.1 µM is 0.1%.

And the inhibition at 1 µM (MST3)?
The inhibition at 1 µM was 46.2%.

What about the inhibition at 0.1 µM (NEK9) of the same compound?
Its inhibition at 0.1 µM is -7.1%.

What about the inhibition at 1 µM (NEK9) of the same compound?
The inhibition at 1 µM was 1%.

What about the inhibition at 0.1 µM (NuaK2) of the same compound?
Its inhibition at 0.1 µM is -11.9%.

And the inhibition at 1 µM (NuaK2)?
The inhibition at 1 µM was 18.1%.

And the inhibition at 0.1 µM (p38a)?
The inhibition at 0.1 µM was -14.6%.

What about the inhibition at 1 µM (p38a) of the same compound?
The inhibition at 1 µM was -1.7%.

And the inhibition at 0.1 µM (p70S6K)?
The inhibition at 0.1 µM was -9%.

And the inhibition at 1 µM (p70S6K)?
The inhibition at 1 µM was 11.1%.

What about the inhibition at 0.1 µM (p70S6Kb) of the same compound?
Its inhibition at 0.1 µM is 11.4%.

What about the inhibition at 1 µM (p70S6Kb) of the same compound?
Its inhibition at 1 µM is 18.5%.

And the inhibition at 0.1 µM (PI4KB)?
The inhibition at 0.1 µM was -7.4%.

And the inhibition at 1 µM (PI4KB)?
The inhibition at 1 µM was 4.9%.

And the inhibition at 0.1 µM (RIPK3)?
The inhibition at 0.1 µM was -3.2%.

What about the inhibition at 1 µM (RIPK3) of the same compound?
Its inhibition at 1 µM is 8%.

And the inhibition at 0.1 µM (RSK2 domain1)?
The inhibition at 0.1 µM was -6%.

And the inhibition at 1 µM (RSK2 domain1)?
Its inhibition at 1 µM is -11.2%.

And the inhibition at 0.1 µM (RSK2 domain2)?
Its inhibition at 0.1 µM is -10%.

And the inhibition at 1 µM (RSK2 domain2)?
The inhibition at 1 µM was 21.4%.

What about the inhibition at 0.1 µM (SLK) of the same compound?
The inhibition at 0.1 µM was 10.5%.

What about the inhibition at 1 µM (SLK) of the same compound?
Its inhibition at 1 µM is 60.7%.

And the inhibition at 0.1 µM (smMLCK)?
Its inhibition at 0.1 µM is -21.6%.

What about the inhibition at 1 µM (smMLCK) of the same compound?
The inhibition at 1 µM was 16.2%.

And the inhibition at 0.1 µM (TAO2)?
Its inhibition at 0.1 µM is -12.7%.

What about the inhibition at 1 µM (TAO2) of the same compound?
Its inhibition at 1 µM is -2.5%.

And the inhibition at 0.1 µM (ULK3)?
The inhibition at 0.1 µM was 3.1%.

And the inhibition at 1 µM (ULK3)?
Its inhibition at 1 µM is 5.2%.

And the inhibition at 0.1 µM (ZC2/TNIK)?
The inhibition at 0.1 µM was -7.9%.

What about the inhibition at 1 µM (ZC2/TNIK) of the same compound?
Its inhibition at 1 µM is 29.2%.
